Test system: APJ-expressing primary allantoic cultures
Experiment: Allantoic explants treated with ligands, digital droplet PCR of gene expression
Assay type: cell-based, mouse
Conditions: 2.5 μM, 12 hours, ddPCR, ELA versus APLN
Method: Allantoic explants were microdissected from 4-5 somite stage embryos on the morning of the 8th day of conception in dissection medium (DMEM+Hepes+7.5% FCS), and cultured in DMEM+NaHCO3+50% rat serum, on poly-L-lysine coated microwells (Ibidi). […] 12 hours later, the explants were harvested by direct lysis and RNA extracted with the Nucleospin RNA XS kit (Machery Nagel). cDNA was made using the SMARTer® Pico PCR cDNA Synthesis Kit (Clontech) and gene quantitation was performed using digital droplet PCR (Biorad) with EvaGreen and PrimeTime probes listed below: […]

“APLN: APLN-36 (Sigma); Apelin, the alternate ligand for APJ (LVQPRGSRNGPGPWQGGRRKFRRQRPRLSHKGPMPF; Apelin-36; UniProt Q9ULZ1 42-77, looked up)” was tested, and the “expression of hypoxic response genes” value (Foxoa3 and Hif3α) was “opposite effects” and the “expression of Esm1” value was “opposite effects”.
